Test results from ChEMBL document CHEMBL3352228 (J Med Chem, 2014).

What was measured:
[1] = in vitro; conditions: pig, LLC-PK1
[2] = system: Plasma; conditions: rat, in vivo, po, 10 mg/kg, 4 h
[3] = in vivo; conditions: Sprague-Dawley, rat, plasma, po, 10 mg/kg
[4] = in vivo; conditions: Sprague-Dawley, rat, CSF, po, 10 mg/kg

Papp at 2 h [1] [×10⁻⁶ cm/s]	Compound	also measured
20	NC1=N[C@@]2(CO1)c1cc(-c3cccnc3F)ccc1Oc1ncc(C3=CCOCC3)cc12	
14	Cc1ccc(-c2cnc3c(c2)[C@]2(COC(N)=N2)c2cc(-c4cccnc4F)ccc2O3)cc1	
11	CC(C)(C)COc1cnc2c(c1)[C@]1(COC(N)=N1)c1cc(-c3cccnc3)ccc1O2	
11	CC(C)(O)C#Cc1cnc2c(c1)[C@]1(COC(N)=N1)c1cc(-c3cccnc3F)ccc1O2	
16	CC(C)(C)COc1ccc2c(c1)[C@]1(COC(N)=N1)c1cc(-c3cncnc3)cnc1O2	
16	COC(C)(C)COc1cnc2c(c1)[C@]1(COC(N)=N1)c1cc(-c3cccnc3F)ccc1O2	
9.5	CC(C)(C)C#Cc1cnc2c(c1)[C@]1(COC(N)=N1)c1cc(-c3cccnc3F)ccc1O2	
12	COC(C)(C)C#Cc1cnc2c(c1)[C@]1(COC(N)=N1)c1cc(-c3cccnc3F)ccc1O2	
10	NC1=N[C@@]2(CO1)c1cc(-c3cccnc3F)ccc1Oc1ncc(N3CCOCC3)cc12	
15	NC1=N[C@@]2(CO1)c1cc(-c3cccnc3F)ccc1Oc1ncc(-c3ccnc(F)c3)cc12	
16	N#Cc1ccc(-c2cnc3c(c2)[C@]2(COC(N)=N2)c2cc(-c4cccnc4F)ccc2O3)cc1	
11	NC1=N[C@@]2(CO1)c1cc(-c3cccnc3F)ccc1Oc1ncc(C3=CCCOC3)cc12	
16	CC(C)(C)COc1cnc2c(c1)[C@]1(COC(N)=N1)c1cc(-c3cncnc3)ccc1O2	
17	CC1(C)C=C(c2cnc3c(c2)[C@]2(COC(N)=N2)c2cc(-c4cccnc4F)ccc2O3)CCO1	Cp(f) [2]: 45 nM; concentration at 4 h [3]: 1010 nM; concentration at 4 h [4]: 5 nM
15	NC1=N[C@@]2(CO1)c1cc(-c3cccnc3F)ccc1Oc1ncc(C3CCOCC3)cc12	
14	CC(C)(C)COc1cnc2c(c1)[C@]1(COC(N)=N1)c1cc(-c3cccnc3F)ccc1O2	
